Measurements reported in ChEMBL document CHEMBL1146460, “Caulibugulones A-F, novel cytotoxic isoquinoline quinones and iminoquinones from the marine bryozoan Caulibugula intermis” (J Nat Prod, 2004).
≈ marks a conversion by molar mass, not a printed value.

Test: Cytotoxicity against wild type mouse IC2 cells after 48 hrs by MTT assay
Details: IC2, 48 h

Q: For `CNC1=CC(=N)c2ccncc2C1=O` [CAULIBUGULONE E], which IC50 is on record?
A: 0.03 µg/mL (≈ 0.16 µM)

Q: Which IC50 does the source give for `CNC1=C(Cl)C(=O)c2ccncc2C1=O` [CAULIBUGULONE C] here?
A: 0.22 µg/mL (≈ 0.988 µM)

Q: For `CNC1=C/C(=N\CCO)c2ccncc2C1=O` [CAULIBUGULONE F], which IC50 is on record?
A: 0.1 µg/mL (≈ 0.432 µM)

Q: With `O=C1C=C(NCCO)C(=O)c2cnccc21` [CAULIBUGULONE D] as the molecule, how does the IC50 read?
A: 1.67 µg/mL (≈ 7.65 µM)

Q: With `CNC1=CC(=O)c2ccncc2C1=O` [CAULIBUGULONE A] as the molecule, how does the IC50 read?
A: 0.34 µg/mL (≈ 1.81 µM)

Q: With `CNC1=C(Br)C(=O)c2ccncc2C1=O` [CAULIBUGULONE B] as the molecule, how does the IC50 read?
A: 0.28 µg/mL (≈ 1.05 µM)
